Source: patent US3956314A, “Derivatives of 2-pyrrolidinone” (U.C.B., Societe Anonyme, priority 1970, dated 1976)

Experiments:
[1] = toxicity determined in rat by intraperitoneal administration (LD50); conditions: in vivo, ip
Source text: Moreover, the compounds of the invention have low toxicity.

Wistar rats = test: anxiolytic action: shuttle box conditioning test, painful electric shocks, second sequence; assay type: in vivo
Experimental: Wistar rats (weighing 100 g. ± 20 g.) are first permitted to become accustomed, during 10 minutes, to conditioning cages of the shuttle box type, after which they are subjected to a first sequence of 20 painful electric shocks of 3 seconds on their paws repeated every 30 seconds. During this first sequence, the rats ran away before the end of the shock about 15 times out of 20 shocks.
On the other hand, if these same animals are subjected to a sequence of shocks 4 hours later, paradoxically, instead of improving their performance (as in the course of a normal training) a reduction in the number of evasions is found: the animals have become set and are less successful in running away before the end of the shocks. This behavior is attributed to an anxiety state induced by the experimental situation.
Intraperitoneal administration of an anxiolytic substance to the rats, half an hour before the second sequence is carried out, improves their performance (increase in the number of evasions before the end of the shock).
A group of rats, to which a substance to be tested is administered, is compared with a group of control rats, which has been injected with physiological serum under the same conditions. […]

## CC1C(=O)NCC1c1ccc(Cl)cc1 [Compound D, 4-p-chlorophenyl-3-methyl-2-pyrrolidinone (trans isomer)]
[1]
  LD50: 306 mg/kg

## CNC1=Nc2ccc(Cl)cc2C(c2ccccc2)=[N+]([O-])C1 [S, 7-chloro-2-methylamino-5-phenyl-3H-1,4-benzodiazepine-4-oxide]
[1]; reference drug
  LD50: 240 mg/kg

## O=C1NC[C@H](c2ccc(Cl)cc2)[C@@H]1c1ccccc1 (relative stereo) [E, 4-p-chlorophenyl-3-phenyl-2-pyrrolidinone (cis isomer)]
[1]
  LD50: 320 mg/kg

## O=C1CC(c2ccc(Cl)cc2)CN1 (centres unmarked) [T, 4-(para-chlorophenyl)-pyrrolidone-(2)]
Wistar rats; dose of 0.32 mmole/kg
  performance (in words): a decrease in the performance
Wistar rats; rat shuttle box test
  anxiolytic action (in words): practically no anxiolytic action
